Reference: US10723699B2 (Hyundai Pharm Co., Ltd., priority 2015, dated 2020)
Like-named read-outs stand apart in the source and are kept apart here.

Molecular target: T1, G protein-coupled receptor 119 (GPR-119) (Mesocricetus auratus, UniProt A0A1U8CD06)
T1 construct: hamster-derived β-cells containing G protein-coupled receptor 119 (GPR-119), HIT-T15 cells; host or cells: HIT-T15 (hamster pancreatic β-cells)
T1 sequence (A0A1U8CD06 1-334): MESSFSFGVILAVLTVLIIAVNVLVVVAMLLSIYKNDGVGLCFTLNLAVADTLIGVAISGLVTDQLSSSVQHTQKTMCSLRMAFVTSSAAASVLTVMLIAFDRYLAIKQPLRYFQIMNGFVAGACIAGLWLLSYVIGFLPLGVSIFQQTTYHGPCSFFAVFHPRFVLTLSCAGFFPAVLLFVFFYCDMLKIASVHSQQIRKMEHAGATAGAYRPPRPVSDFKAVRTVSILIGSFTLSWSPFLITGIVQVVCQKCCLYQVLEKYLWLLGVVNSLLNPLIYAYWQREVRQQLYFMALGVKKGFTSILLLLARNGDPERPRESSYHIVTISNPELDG
Assay: cAMP activity in HIT-T15 cells (cAMP dynamic kit, FRET)
Type: cell-based, hamster
Summary of the method: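 Hamster HIT-T15 cells (60,000/well) were treated next day with compound at six concentrations, 0.0032–10 μM, for 1 h at 37° C. Cells were then lysed and cAMP measured by competitive HTRF immunoassay (D2-cAMP, cryptate anti-cAMP). Activity was derived as the change in FRET signal relative to DMSO.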

[1] = 1 hour at 37° C., six concentrations 0.0032 to 10 μM, read-out: EC50

| SMILES | EC50 [1] [nM] | EC50 (Table 2, read-out: EC50 value) [nM] | EC50 (EC50 (nM), 1 hour at 37° C., six concentrations 0.0032 to 10 μM) [nM] | EC50 (EC50 value, Table 2) [nM] |
| --- | --- | --- | --- | --- |
| CCN1CCN(C(=O)C2CC=C(c3ccc(OCC4CCN(c5nc(C(C)C)no5)CC4)c(F)c3)CC2)CC1 (stereo not drawn) [Example 346, (4-ethylpiperazin-1-yl)(4-(3-fluoro-4-((1-(3-isopropyl-1,2,4-oxadiazol-5-yl)piperidin-4-yl)methoxy)phenyl)cyclohex-3-enyl)methanone] | 100 | – | – | – |
| CC(C)c1noc(N2CCC(COc3ccc(C4=CCC(C(=O)N5CCN(CCCO)CC5)CC4)cc3F)CC2)n1 (stereo not drawn) [Example 347, (4-(3-fluoro-4-((1-(3-isopropyl-1,2,4-oxadiazol-5-yl)piperidin-4-yl)methoxy)phenyl)cyclohex-3-enyl)(4-(3-hydroxypropyl)piperazin-1-yl)methanone] | 55 | – | – | – |
| CC(C)c1noc(N2CCC(COc3ccc(C4=CCC(C(=O)N5CCN(C6CC6)CC5)CC4)cc3F)CC2)n1 (stereo not drawn) [Example 348, (4-cyclopropylpiperazin-1-yl)(4-(3-fluoro-4-((1-(3-isopropyl-1,2,4-oxadiazol-5-yl)piperidin-4-yl)methoxy)phenyl)cyclohex-3-enyl)methanone] | 14 | ≤ 50 | – | – |
| CCc1cnc(N2CCC(COc3ccc(C4=CCC(C(=O)N5CCCC5)CC4)cn3)CC2)nc1 (stereo not drawn) [Example 349, (4-(6-((1-(5-ethylpyrimidin-2-yl)piperidin-4-yl)methoxy)pyridin-3-yl)cyclohex-3-enyl)(pyrrolidin-1-yl)methanone] | 27 | ≤ 50 | – | – |
| CCc1cnc(N2CCC(COc3ccc(C4=CCC(C(=O)N5CCCCC5)CC4)cn3)CC2)nc1 (stereo not drawn) [Example 350, (4-(6-((1-(5-ethylpyrimidin-2-yl)piperidin-4-yl)methoxy)pyridin-3-yl)cyclohex-3-enyl)(piperidin-1-yl)methanone] | 52 | – | – | – |
| CCc1cnc(N2CCC(COc3ccc(C4=CCC(C(=O)N5CCOCC5)CC4)cn3)CC2)nc1 (stereo not drawn) [Example 351, (4-(6-((1-(5-ethylpyrimidin-2-yl)piperidin-4-yl)methoxy)pyridin-3-yl)cyclohex-3-enyl)(morpholino)methanone] | 41 | ≤ 50 | – | – |
| CCc1cnc(N2CCC(COc3ccc(C4=CCC(C(=O)N5CCSCC5)CC4)cn3)CC2)nc1 (stereo not drawn) [Example 352, (4-(6-((1-(5-ethylpyrimidin-2-yl)piperidin-4-yl)methoxy)pyridin-3-yl)cyclohex-3-enyl)(thiomorpholino)methanone] | 63 | – | – | – |
| CCc1cnc(N2CCC(COc3ccc(C4=CCC(C(=O)N5CCC(O)CC5)CC4)cn3)CC2)nc1 (stereo not drawn) [Example 353, (4-(6-((1-(5-ethylpyrimidin-2-yl)piperidin-4-yl)methoxy)pyridin-3-yl)cyclohex-3-enyl)(4-hydroxypiperidin-1-yl)methanone] | 58 | – | – | – |
| CCc1cnc(N2CCC(COc3ccc(C4=CCC(C(=O)N5CCC(CO)CC5)CC4)cn3)CC2)nc1 (stereo not drawn) [Example 354, (4-(6-((1-(5-ethylpyrimidin-2-yl)piperidin-4-yl)methoxy)pyridin-3-yl)cyclohex-3-enyl)(4-(hydroxymethyl)piperidin-1-yl)methanone] | 22 | ≤ 50 | – | – |
| CC(C)c1noc(N2CCC(COc3ccc(C4=CCC(C(=O)N5CCN(C6CC6)CC5)CC4)cn3)CC2)n1 (stereo not drawn) [Example 355, (4-cyclopropylpiperazin-1-yl)(4-(6-((1-(3-isopropyl-1,2,4-oxadiazol-5-yl)piperidin-4-yl)methoxy)pyridin-3-yl)cyclohex-3-enyl)methanone] | 46 | ≤ 50 | – | – |
| O=C(NCCO)C1CC=C(c2ccc(OCC3CCN(c4ncc(Br)cn4)CC3)cc2)CC1 (stereo not drawn) [Example 357, 4-(4-((1-(5-bromopyrimidin-2-yl)piperidin-4-yl)methoxy)phenyl)-N-(2-hydroxyethyl)cyclohex-3-enecarboxamide] | 150 | – | – | – |
| O=C(NCCO)C1CC=C(c2ccc(OCC3CCN(c4ccccn4)CC3)cc2)CC1 (stereo not drawn) [Example 358, N-(2-hydroxyethyl)-4-(4-((1-(pyridin-2-yl)piperidin-4-yl)methoxy)phenyl)cyclohex-3-enecarboxamide] | 190 | – | – | – |
| CCc1cnc(N2CCC(COc3ccc(C4=CCC(C(=O)N(C)CCO)CC4)cc3F)CC2)nc1 (stereo not drawn) [Example 359, 4-(4-((1-(5-ethylpyrimidin-2-yl)piperidin-4-yl)methoxy)-3-fluorophenyl)-N-(2-hydroxyethyl)-N-methylcyclohex-3-enecarboxamide] | 14 | ≤ 50 | – | – |
| CCc1cnc(N2CCC(COc3ccc(C4=CCC(C(=O)N(CC)CCO)CC4)cc3F)CC2)nc1 (stereo not drawn) [Example 360, N-ethyl-4-(4-((1-(5-ethylpyrimidin-2-yl)piperidin-4-yl)methoxy)-3-fluorophenyl)-N-(2-hydroxyethyl)cyclohex-3-enecarboxamide] | 8.8 | ≤ 50 | – | – |
| CC(C)c1noc(N2CCC(COc3ccc(C4=CCC(C(=O)N5CCC(C(N)=O)CC5)CC4)cc3F)CC2)n1 (stereo not drawn) [Example 361, 1-(4-(3-fluoro-4-((1-(3-isopropyl-1,2,4-oxadiazol-5-yl)piperidin-4-yl)methoxy)phenyl)cyclohex-3-enecarbonyl)piperidine-4-carboxamide] | 48 | ≤ 50 | – | – |
| CC(C)c1noc(N2CCC(COc3ccc(C4=CCC(C(=O)N5CCC(N6CCCCC6)CC5)CC4)cc3F)CC2)n1 (stereo not drawn) [Example 362, 1,4′-bipiperidin-1′-yl(4-(3-fluoro-4-((1-(3-isopropyl-1,2,4-oxadiazol-5-yl)piperidin-4-yl)methoxy)phenyl)cyclohex-3-enyl)methanone] | 180 | – | – | – |
| CC(C)c1noc(N2CCC(COc3ccc(C4=CCC(C(=O)NC5CC5)CC4)cc3F)CC2)n1 (stereo not drawn) [Example 363, N-cyclopropyl-4-(3-fluoro-4-((1-(3-isopropyl-1,2,4-oxadiazol-5-yl)piperidin-4-yl)methoxy)phenyl)cyclohex-3-enecarboxamide] | 110 | – | – | – |
| CC(C)c1noc(N2CCC(COc3ccc(C4=CCC(C(=O)NC5CCC5)CC4)cc3F)CC2)n1 (stereo not drawn) [Example 364, N-cyclobutyl-4-(3-fluoro-4-((1-(3-isopropyl-1,2,4-oxadiazol-5-yl)piperidin-4-yl)methoxy)phenyl)cyclohex-3-enecarboxamide] | 85 | – | – | – |
| CC(C)c1noc(N2CCC(COc3ccc(C4=CCC(C(=O)NC5CCCC5)CC4)cc3F)CC2)n1 (stereo not drawn) [Example 365, N-cyclopentyl-4-(3-fluoro-4-((1-(3-isopropyl-1,2,4-oxadiazol-5-yl)piperidin-4-yl)methoxy)phenyl)cyclohex-3-enecarboxamide] | 38 | ≤ 50 | – | – |
| CC(C)c1noc(N2CCC(COc3ccc(C4=CCC(C(=O)NC5CCCCC5)CC4)cc3F)CC2)n1 (stereo not drawn) [Example 366, N-cyclohexyl-4-(3-fluoro-4-((1-(3-isopropyl-1,2,4-oxadiazol-5-yl)piperidin-4-yl)methoxy)phenyl)cyclohex-3-enecarboxamide] | 39 | ≤ 50 | – | – |
| CCN1CCN(C(=O)C2CC=C(c3ccc(OCC4CCN(c5nc(C(C)C)no5)CC4)c(F)c3)CC2)CC1 (stereo not drawn) [Example 367, (4-ethylpiperazin-1-yl)(4-(3-fluoro-4-((1-(3-isopropyl-1,2,4-oxadiazol-5-yl)piperidin-4-yl)methoxy)phenyl)cyclohex-3-enyl)methanone] | 26 | ≤ 50 | – | – |
| CC(C)c1noc(N2CCC(COc3ccc(C4=CCC(C(=O)N5CCN(CCCO)CC5)CC4)cc3F)CC2)n1 (stereo not drawn) [Example 368, (4-(3-fluoro-4-((1-(3-isopropyl-1,2,4-oxadiazol-5-yl)piperidin-4-yl)methoxy)phenyl)cyclohex-3-enyl)(4-(3-hydroxypropyl)piperazin-1-yl)methanone] | 48 | ≤ 50 | – | – |
| CC(C)c1noc(N2CCC(COc3ccc(C4=CCC(C(=O)N5CCN(C6CC6)CC5)CC4)cc3F)CC2)n1 (stereo not drawn) [Example 369, (4-cyclopropylpiperazin-1-yl)(4-(3-fluoro-4-((1-(3-isopropyl-1,2,4-oxadiazol-5-yl)piperidin-4-yl)methoxy)phenyl)cyclohex-3-enyl)methanone] | 9 | – | – | – |
| CC(C)c1noc(N2CCC(COc3ccc(C4=CCC(C(=O)N5CCC6(CC5)OCCO6)CC4)cc3F)CC2)n1 (stereo not drawn) [Example 370, (4-(3-fluoro-4-((1-(3-isopropyl-1,2,4-oxadiazol-5-yl)piperidin-4-yl)methoxy)phenyl)cyclohex-3-enyl)(1,4-dioxa-8-azaspiro[4.5]decan-8-yl)methanone] | – | – | 15 | ≤ 50 |
| CC(C)c1noc(N2CCC(COc3ccc(C4=CCC(C(=O)NCC(C)(C)CO)CC4)cc3F)CC2)n1 (stereo not drawn) [Example 371, 4-(3-fluoro-4-((1-(3-isopropyl-1,2,4-oxadiazol-5-yl)piperidin-4-yl)methoxy)phenyl)-N-(3-hydroxy-2,2-dimethylpropyl)cyclohex-3-enecarboxamide] | 39 | ≤ 50 | – | – |
| CC(C)c1noc(N2CCC(COc3ccc(C4=CCC(C(=O)N(CCO)CCO)CC4)cc3F)CC2)n1 (stereo not drawn) [Example 372, 4-(3-fluoro-4-((1-(3-isopropyl-1,2,4-oxadiazol-5-yl)piperidin-4-yl)methoxy)phenyl)-N,N-bis(2-hydroxyethyl)cyclohex-3-enecarboxamide] | 46 | ≤ 50 | – | – |
| CCc1cnc(N2CCC(COc3ccc(C4=CCC(C(=O)N5CCCC5)CC4)cc3C(F)(F)F)CC2)nc1 (stereo not drawn) [Example 374] | 150 | – | – | – |
